Data set [1] deals with PXB-cells. The data set is described as follows: Fat droplets in PXB-cells cultured in medium with or without DMSO (photomicrograph). The data set is classed as cell-based, human. The following applies: 2% DMSO, PXB-cells cultured 5 days. How it is done: The following day of seeding, medium A was removed. Instead, 500 μL of medium B (DMSO (+)) or medium C (DMSO (−)) was added. The plate was gently placed in an incubator (37° C., 5% CO2) and the cells were cultured for 5 days. After completion of culture, an image of the cells was taken by a photomicrographic camera. Then, the culture supernatant was recovered and subjected to analysis for lipoprotein in the culture supernatant described below.

Data set [2] has as its system PXB-cells. The data set is described as follows: Total neutral fat of lipoproteins in culture supernatant of PXB-cells cultured with or without DMSO. In kind it is cell-based, human. The following applies: 2% DMSO, PXB-cells cultured 5 days. How it is done:
The following day of seeding, medium A was removed. Instead, 500 μL of medium B (DMSO (+)) or medium C (DMSO (−)) was added. The plate was gently placed in an incubator (37° C., 5% CO2) and the cells were cultured for 5 days. After completion of culture, an image of the cells was taken by a photomicrographic camera. Then, the culture supernatant was recovered and subjected to analysis for lipoprotein in the culture supernatant described below. Lipoproteins contained in the culture supernatants of PXB-cells, HepG2 cells and HuH7 cells were analyzed by using LipoSEARCH (registered trademark) method (Skylight Biotech, Inc.). After completion of the culture mentioned above, the medium used in the culture was removed and 500 μL of medium D for analysis was added. The culture plate was gently placed in an incubator (37° C., 5% CO2) and the cells were cultured for 2 days. Thereafter, the culture supernatant was recovered, lipoproteins contained in the culture supernatant (80 μL) were fractionated into 4 types of subgroups, CM, VLDL, LDL and HDL fractions, by gel filtration HPLC. Cholesterol and neutral fat (triglyceride) contained in individual fractions were quantified by online enzyme reactions. […]

Data set [3] deals with PXB-cells. The data set is described as follows: Screening test: total cholesterol and total neutral fat (triglyceride) in culture supernatant of PXB-cells (LipoSEARCH). In kind it is cell-based, human. The following applies: lomitapide 1, 10, 100 μM, 2 days; PXB-cells pre-cultured 12 days in medium B (DMSO (+)); vs ethanol control. How it is done: Lipoproteins contained in the culture supernatants of PXB-cells, HepG2 cells and HuH7 cells were analyzed by using LipoSEARCH (registered trademark) method (Skylight Biotech, Inc.).
After completion of the culture mentioned above, the medium used in the culture was removed and 500 μL of medium D for analysis was added. The culture plate was gently placed in an incubator (37° C., 5% CO2) and the cells were cultured for 2 days. Thereafter, the culture supernatant was recovered, lipoproteins contained in the culture supernatant (80 μL) were fractionated into 4 types of subgroups, CM, VLDL, LDL and HDL fractions, by gel filtration HPLC. Cholesterol and neutral fat (triglyceride) contained in individual fractions were quantified by online enzyme reactions. […]
Each test substance was suspended with ethanol and added in a predetermined amount to a PXB-cell culture, gently placed in an incubator (37° C., 5% CO2) and cultured for 2 days. After completion of culture, the total cholesterol and total neutral fat (triglyceride) in culture supernatant and in cells were measured in accordance with the methods described in the sections “Analysis of lipoprotein in culture supernatant” and “Analysis of lipoprotein in cells”. […]

The test system of data set [4] is PXB-cells. The data set is described as follows: Screening test: total cholesterol and total neutral fat (triglyceride) in PXB-cells (Cholestest). The data set is classed as cell-based, human. The following applies: lomitapide 1, 10, 100 μM, 2 days; PXB-cells pre-cultured 12 days in medium B (DMSO (+)); vs ethanol control. As for the experimental part: Triglyceride in cells was measured by use of Cholestest (registered trademark) TG (Sekisui Medical Co., Ltd.) in accordance with the instruction by the manufacturer. More specifically, the cells were washed with PBS, and then, completely dewatered (stored at −80° C. until measurement). To each well containing the cells, 200 μL of TG enzyme solution (1) was added. A reaction was allowed to proceed while keeping the cells warm at 37° C. for 10 minutes (free glycerol was removed). Then, the cells were torn away by pipetting, transferred to a centrifuge tube and centrifuged at 10,000 rpm×10 minutes. Then, the supernatant (7.5 μL) was transferred to a 96-well microplate. […] The resultant reaction product was subjected to measurement of absorbance at 550 nm. The content of triglyceride was calculated based on HDL-C180A as the reference (triglyceride concentration of HDL-C180A was 52.26 mg/dL).
Intracellular cholesterol was measured by use of Cholestest (registered trademark) CHO (Sekisui Medical Co., Ltd.) in accordance with the instruction by the manufacturer. […] The resultant reaction product was subjected to measurement of absorbance at 550 nm. The content of cholesterol was calculated based on HDL-C180A as the standard ([…] concentration of HDL-C180A was 152.67 mg/dL). […]

The test system of data set [5] is PXB-cells. The data set is described as follows: Human albumin content in culture supernatant of PXB-cells (immunoturbidimetric method), toxicity index. The data set is classed as cell-based. The following applies: 2 days.

As for `C[S+](C)[O-]` [DMSO, dimethyl sulfoxide], the “number of fat droplets, medium B (DMSO (+)) compared to medium C (DMSO (−))” value in data set [1] is recorded as “about double”. Also, the “secretion of total neutral fat (triglyceride) in lipoproteins, medium B (DMSO (+)) relative to medium C (DMSO (−))” value in data set [2] is “about 9 times”.

Turning to `O=C(NC1CCN(CCCCC2(C(=O)NCC(F)(F)F)c3ccccc3-c3ccccc32)CC1)c1ccccc1-c1ccc(C(F)(F)F)cc1` [lomitapide], in data set [3], the “total cholesterol content in the culture supernatants” value is reported as “significantly decreased” and the “total neutral fat (triglyceride) content in the culture supernatants” value is listed as “significantly decreased”. Besides, in data set [4], the “total cholesterol content in the cells” value is given as “no significant decrease” and the “total neutral fat (triglyceride) content in the cells” value is on record as “no significant decrease”. Further, the “content of human albumin in the culture supernatant” value in data set [5] (lomitapide 1, 10, 100 μM, PXB-cells in medium B (DMSO (+))) was “decreased depending on the addition amount”. Moreover, in data set [5] (lomitapide, high amount (1-100 μM tested), PXB-cells), the “toxicity (based on human albumin content)” value was “toxic”.

Consider `CCC(C)(C)C(=O)O[C@H]1C[C@@H](C)C=C2C=C[C@H](C)[C@H](CC[C@@H]3C[C@@H](O)CC(=O)O3)[C@H]21` [simvastatin], for which, in data set [5] (simvastatin 0.1, 1, 10 μM, PXB-cells in medium B (DMSO (+))), the “human albumin content in the culture supernatant” value is “no significant decrease”.

Source of the values: patent US20250179436A1, “HUMAN FATTY-LIVER MODEL CELLS” (PhoenixBio Co., Ltd., priority 2019, published 2025).
